Data as given in patent US8802673B2, “Heterocyclic amine derivatives” (Hoffmann-La Roche Inc, priority 2011, dated 2014).

Legend:
[1] = target: mouse TAAR1 (Mus musculus (Mouse), UniProt Q923Y8); assay: Radioligand binding assay on mouse TAAR1; conditions: mouse TAAR1 (first value of the cell), HEK-293 membranes; read-out: Ki (μM) mouse/rat
Method: (§1) Construction of TAAR Expression Plasmids and Stably Transfected Cell Lines
(§2) For the construction of expression plasmids the coding sequences of human, rat and mouse TAAR 1 were amplified from genomic DNA essentially as described by Lindemann et al.. The Expand High Fidelity PCR System (Roche Diagnostics) was used with 1.5 mM Mg^2+ and purified PCR products were cloned into pCR2.1-TOPO cloning vector (Invitrogen) following the instructions of the manufacturer. PCR products were subcloned into the pIRESneo2 vector (BD Clontech, Palo Alto, Calif.), and expression vectors were sequence verified before introduction in cell lines.
(§3) HEK293 cells (ATCC #CRL-1573) were cultured essentially as described by Lindemann et al. (2005). For the generation of stably transfected cell lines HEK293 cells were transfected with the pIRESneo2 expression plasmids containing the TAAR coding sequences (described above) with Lipofectamine 2000 (Invitrogen) according to the instructions of the manufacturer, and 24 hrs post transfection the culture medium was supplemented with 1 mg/ml G418 (Sigma, Buchs, Switzerland). After a culture period of about 10 d clones were isolated, expanded and tested for responsiveness to trace amines (all compounds purchased from Sigma) with the cAMP Biotrak Enzyme immunoassay (EIA) System (Amersham) following the non-acetylation EIA procedure provided by the manufacturer.
Radioligand Binding Assay on Mouse TAAR1
Membrane Preparation and Radioligand Binding.
(§4) HEK-293 cells stably expressing mouse TAAR1 were maintained at 37° C. and 5% CO2 in DMEM high glucose medium, containing fetal calf serum (10%, heat inactivated for 30 min at 56° C.), penicillin/streptomycin (1%), and 375 μg/ml geneticin (Gibco). Cells were released from culture flasks using trypsin/EDTA, harvested, washed twice with ice-cold PBS (without Ca^2+ and Mg^2+), pelleted at 1,000 rpm for 5 min at 4° C., frozen and stored at −80° C. Frozen pellets were suspended in 20 ml HEPES-NaOH (20 mM, pH 7.4) containing 10 mM EDTA and homogenized with a Polytron (PT 6000, Kinematica) at 14,000 rpm for 20 s. The homogenate was centrifuged at 48,000×g for 30 min at 4° C. Subsequently, the supernatant was removed and discarded, and the pellet resuspended in 20 ml HEPES-NaOH (20 mM, pH 7.4) containing 0.1 mM EDTA using the Polytron (20 s at 14,000 rpm). This procedure was repeated and the final pellet resuspended in HEPES-NaOH containing 0.1 mM EDTA and homogenized using the Polytron. Typically, aliquots of 2 ml membrane portions were stored at −80° C. With each new membrane batch the dissociation constant (Kd) was determined via a saturation curve. […] All compounds were tested at a broad range of concentrations (10 pM to 10 μM) in duplicates. […] The 96 deep well plates were incubated for 1 hr at 4° C. Incubations were terminated by rapid filtration through Unifilter-96 plates (Packard Instrument Company) and glass filters GF/C (Perkin Elmer) presoaked for 1 hr in polyethylenimine (0.3%) and washed 3 times with 1 ml of cold binding buffer. After addition of 45 μl of Microscint 40 (PerkinElmer) the Unifilter-96 plate was sealed and after 1 hr the ratioactivity counted using a TopCount Microplate Scintillation Counter (Packard Instrument Company).

[2] = target: rat TAAR1 (Rattus norvegicus (Rat), UniProt Q923Y9); assay: Radioligand binding assay on rat TAAR1; conditions: rat TAAR1 (second value of the cell), HEK-293 membranes; read-out: Ki (μM) mouse/rat
Sequence of rat TAAR1 (Q923Y9 whole entry): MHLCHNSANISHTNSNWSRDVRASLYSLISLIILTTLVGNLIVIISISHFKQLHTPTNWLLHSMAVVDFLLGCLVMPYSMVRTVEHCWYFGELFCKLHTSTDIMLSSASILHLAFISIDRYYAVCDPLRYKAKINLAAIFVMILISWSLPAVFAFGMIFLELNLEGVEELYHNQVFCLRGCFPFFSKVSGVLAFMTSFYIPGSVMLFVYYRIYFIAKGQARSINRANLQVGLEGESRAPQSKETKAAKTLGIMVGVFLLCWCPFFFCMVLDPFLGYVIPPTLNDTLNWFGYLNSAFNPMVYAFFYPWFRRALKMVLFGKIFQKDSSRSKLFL
Method: as §1, §2, §3
Radioligand Binding Assay on Rat TAAR1
Membrane Preparation and Radioligand Binding
as §4, with “rat” for “mouse”

Sequence of mouse TAAR1 (Q923Y8 whole entry): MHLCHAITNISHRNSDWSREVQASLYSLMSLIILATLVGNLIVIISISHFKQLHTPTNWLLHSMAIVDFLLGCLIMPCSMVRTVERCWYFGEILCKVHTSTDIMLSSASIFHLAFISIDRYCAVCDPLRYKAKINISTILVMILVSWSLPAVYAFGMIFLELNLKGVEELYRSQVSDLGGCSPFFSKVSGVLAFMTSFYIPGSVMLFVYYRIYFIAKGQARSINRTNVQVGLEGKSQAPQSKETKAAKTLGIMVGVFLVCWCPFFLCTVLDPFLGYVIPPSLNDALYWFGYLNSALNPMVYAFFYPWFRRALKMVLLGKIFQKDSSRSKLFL

Row | Structure (SMILES) | Ki [1] [µM] | Ki [2] [µM]
1 | Clc1ccc(CNc2ccc([C@H]3CNCCO3)cc2)cc1Cl [Example 30, (3,4-Dichloro-benzyl)-((S)-4-morpholin-2-yl-phenyl)-amine] | 0.0051 | 0.0417
2 | Fc1ccc(CNc2ccc([C@H]3CNCCO3)cc2)cc1 [Example 31, (4-Fluoro-benzyl)-((S)-4-morpholin-2-yl-phenyl)-amine] | 0.0452 | 0.222
3 | Clc1ccc(CNc2ccc([C@H]3CNCCO3)cc2)cn1 [Example 32, (S)—N-((6-Chloropyridin-3-yl)methyl)-4-(morpholin-2-yl)aniline] | 0.0357 | 1.24
4 | FC(F)(F)c1ccc(CNc2ccc([C@H]3CNCCO3)cc2)cn1 [Example 33, (S)-4-(Morpholin-2-yl)-N-((6-(trifluoromethyl)pyridin-3-yl)methyl)aniline] | 0.047 | 0.544
5 | Clc1ccc(CCNc2ccc([C@H]3CNCCO3)cc2)cc1 [Example 34, [2-(4-Chloro-phenyl)-ethyl]-((S)-4-morpholin-2-yl-phenyl)-amine] | 0.0042 | 0.0181
6 | CCc1ccc(CNc2ccc([C@H]3CNCCO3)cc2)cc1 [Example 36, (4-Ethyl-benzyl)-((S)-4-morpholin-2-yl-phenyl)-amine] | 0.0288 | 0.163
7 | COc1ccnc(Nc2ccc([C@H]3CNCCO3)cc2)c1 [Example 39, (S)-4-Methoxy-N-(4-(morpholin-2-yl)phenyl)pyridin-2-amine] | 0.004 | 0.251
8 | FC(F)(F)c1cccnc1Nc1ccc([C@H]2CNCCO2)cc1 [Example 41, (S)—N-(4-(Morpholin-2-yl)phenyl)-3-(trifluoromethyl)pyridin-2-amine] | 0.27 | 1.08
9 | FC(F)(F)c1ccnc(Nc2ccc([C@H]3CNCCO3)cc2)c1 [Example 42, (S)—N-(4-(Morpholin-2-yl)phenyl)-4-(trifluoromethyl)pyridin-2-amine] | 0.0023 | 0.0518
10 | Fc1cncc(Nc2ccc([C@H]3CNCCO3)cc2)c1 [Example 43, (S)-5-Fluoro-N-(4-(morpholin-2-yl)phenyl)pyridin-3-amine] | 0.0269 | 0.648
11 | c1ccc2cc(Nc3ccc([C@H]4CNCCO4)cc3)ccc2c1 [Example 44, ((S)-4-Morpholin-2-yl-phenyl)-naphthalen-2-yl-amine] | 0.0007 | 0.0118
12 | Brc1ccc(CNc2ccc([C@H]3CNCCO3)cc2)cc1 [Example 45, (4-Bromo-benzyl)-((S)-4-morpholin-2-yl-phenyl)-amine] | 0.0061 | 0.126
13 | c1ccc2nc(Nc3ccc([C@H]4CNCCO4)cc3)ccc2c1 [Example 46, ((S)-4-Morpholin-2-yl-phenyl)-quinolin-2-yl-amine] | 0.0008 | 0.0643
14 | FC(F)(F)c1cc(Nc2ccc([C@H]3CNCCO3)cc2)c2cccc(C(F)(F)F)c2n1 [Example 49, (S)—N-(4-(Morpholin-2-yl)phenyl)-2,8-bis(trifluoromethyl)quinolin-4-amine] | 0.0266 | 0.104
15 | Clc1nc2ccccc2cc1CNc1ccc([C@H]2CNCCO2)cc1 [Example 51, (S)—N-((2-Chloroquinolin-3-yl)methyl)-4-(morpholin-2-yl)aniline] | 0.0363 | 0.28
16 | Clc1cccc2ccc(Nc3ccc([C@H]4CNCCO4)cc3)nc12 [Example 52, (S)-8-Chloro-N-(4-(morpholin-2-yl)phenyl)quinolin-2-amine] | 0.0005 | 0.0084
17 | Brc1cccc2nc(Nc3ccc([C@H]4CNCCO4)cc3)ccc12 [Example 53, (S)-5-Bromo-N-(4-(morpholin-2-yl)phenyl)quinolin-2-amine] | 0.0012 | 0.0045
18 | Fc1ncccc1Nc1ccc([C@H]2CNCCO2)cc1 [Example 55, (2-Fluoro-pyridin-3-yl)-((S)-4-morpholin-2-yl-phenyl)-amine] | 0.738 | 1.98
19 | Fc1cc(Cl)ccc1Nc1ccc([C@H]2CNCCO2)cc1 [Example 59, (S)-4-Chloro-2-fluoro-N-(4-(morpholin-2-yl)phenyl)aniline] | 0.0049 | 0.207
20 | CN(c1ccc(Cl)cc1)c1ccc([C@H]2CNCCO2)cc1 [Example 60, (4-Chloro-phenyl)-methyl-((S)-4-morpholin-2-yl-phenyl)-amine] | 0.0222 | 0.758

More lines, now with the values ahead:

Row | Ki [1] [µM] | Ki [2] [µM] | Structure (SMILES)
21 | 0.0096 | 0.188 | Fc1cc(Cl)ccc1CNc1ccc([C@H]2CNCCO2)cc1 [Example 35, (4-Chloro-2-fluoro-benzyl)-((S)-4-morpholin-2-yl-phenyl)-amine]
22 | 0.0011 | 0.0544 | Clc1ccc(Nc2ccc([C@H]3CNCCO3)cc2)nc1 [Example 38, (5-Chloro-pyridin-2-yl)-((S)-4-morpholin-2-yl-phenyl)-amine]
23 | 0.0026 | 0.188 | Fc1cc(Nc2ccc([C@H]3CNCCO3)cc2)cnc1Cl [Example 40, (S)-6-Chloro-5-fluoro-N-(4-(morpholin-2-yl)phenyl)pyridin-3-amine]
24 | 0.0012 | 0.0067 | Clc1ccc2nc(Nc3ccc([C@H]4CNCCO4)cc3)ccc2c1 [Example 47, (S)-6-Chloro-N-(4-(morpholin-2-yl)phenyl)quinolin-2-amine]
25 | 0.005 | 0.0608 | Clc1ccc2ncnc(Nc3ccc([C@H]4CNCCO4)cc3)c2c1 [Example 50, (S)-6-Chloro-N-(4-(morpholin-2-yl)phenyl)quinazolin-4-amine]
26 | 0.0008 | 0.0138 | Clc1cc(Nc2ccc([C@H]3CNCCO3)cc2)nc2ccccc12 [Example 54, (S)-4-Chloro-N-(4-(morpholin-2-yl)phenyl)quinolin-2-amine]
27 | 0.0372 | 0.211 | Cc1cc(Br)cnc1Nc1ccc([C@H]2CNCCO2)cc1 [Example 56, (S)-5-Bromo-3-methyl-N-(4-(morpholin-2-yl)phenyl)pyridin-2-amine]
28 | 0.0023 | 0.0866 | Fc1cc(Br)cnc1Nc1ccc([C@H]2CNCCO2)cc1 [Example 57, (S)-5-Bromo-3-fluoro-N-(4-(morpholin-2-yl)phenyl)pyridin-2-amine]
29 | 0.0704 | 0.584 | Clc1cnc(Nc2ccc([C@H]3CNCCO3)cc2)c(Cl)c1 [Example 58, (S)-3,5-Dichloro-N-(4-(morpholin-2-yl)phenyl)pyridin-2-amine]
30 | 0.0591 | 0.502 | Brc1cnc(Nc2ccc([C@H]3CNCCO3)cc2)c(Br)c1 [Example 61, (S)-3,5-Dibromo-N-(4-(morpholin-2-yl)phenyl)pyridin-2-amine]
